The assay relates to ZIKA rabbits. In kind it is in vivo. Particulars: rabbits n=3 immunized with CRM197-23* in alhydrogel day 0 and 14; sera before and after immunization.

Molecules are shown by their SMILES. “Also recorded” adds a separate entry of the source.

With `C[C@@H]1O[C@@H](O[C@H]2C(C(=O)O)O[C@H](OC3C(O)[C@@H](O)[C@H](C)O[C@H]3OC3C(O)[C@@H](O)[C@H](C)O[C@H]3OC3C(O)[C@@H](O)[C@H](C)O[C@H]3OCCCCCN)C(O)[C@H]2O[C@@H]2OC(CO)[C@H](O)[C@H](O)C2O)C(O)C(O)[C@H]1O` (stereo partly drawn) [hexasaccharide 23*, 5-Amino-pentanyl α-L-rhamnopyranosyl-(1→4)-[P3-D-galactopyranosyl-(1→3)]-α-D-galactopyranosyluronic acid-(1→2)-α-L-rhamnopyranosyl-(1→2)-α-L-rhamnopyranosyl-(1→2)-α-L-rhamnopyranoside], the “immunogenicity and cross-reactivity of antibodies by glycan microarray” value was “specific antibodies are cross-reactive with native polysaccharide and other synthetic glycans; also recorded: immunogenic in rabbits and induces cross-reactive antibodies”.

For the origin of these results see US10688169B2 (priority 2015, dated 2020).
